Reference: PubChem BioAssay (NCI)
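Following 48 hours of exposure in 96-well plates, responses at five concentrations were used to interpolate endpoints linearly. Here, GI50 denotes the concentration required for 50% inhibition of growth. TGI marks complete inhibition of growth.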

Columns and labels:
Test in all cases: DTP human tumour cell line panel, 48 h
HCT-116 colon = system: HCT-116 colon
OVCAR-5 ovarian = system: OVCAR-5 ovarian
RPMI-8226 leukemia = system: RPMI-8226 leukemia
SK-MEL-5 melanoma = system: SK-MEL-5 melanoma
SK-OV-3 ovarian = system: SK-OV-3 ovarian
SNB-19 CNS = system: SNB-19 CNS
SW-620 colon = system: SW-620 colon
TK-10 renal = system: TK-10 renal
UO-31 renal = system: UO-31 renal
NCI/ADR-RES ovarian = system: NCI/ADR-RES ovarian

| Structure (SMILES) | TGI (HCT-116 colon) [µM] | TGI (OVCAR-5 ovarian) [µM] | TGI (RPMI-8226 leukemia) | TGI (SK-MEL-5 melanoma) | TGI (SK-OV-3 ovarian) | TGI (SNB-19 CNS) | TGI (SW-620 colon) | TGI (TK-10 renal) | TGI (UO-31 renal) | GI50 (NCI/ADR-RES ovarian) | TGI (NCI/ADR-RES ovarian) | GI50 (OVCAR-5 ovarian) [µM] | GI50 (RPMI-8226 leukemia) [µM] | GI50 (SK-MEL-5 melanoma) | GI50 (SK-OV-3 ovarian) | GI50 (SNB-19 CNS) | GI50 (SW-620 colon) [µM] | GI50 (TK-10 renal) | GI50 (UO-31 renal) | GI50 (HCT-116 colon) [µM] |
| --- | --- | --- | --- | --- | --- | --- | --- | --- | --- | --- | --- | --- | --- | --- | --- | --- | --- | --- | --- | --- |
| CCN(CC)CCOc1ccc(/C=C(\C#N)c2ccc(OCCN(CC)CC)cc2)cc1 | 21.9 | > 66 | 50.1 µM | 15.9 µM | > 64.2 µM | > 92 µM | 29.6 µM | > 91.3 µM | 31.2 µM | – | – | – | – | – | – | – | – | – | – | – |
| Cc1ccccc1N1C(=O)/C(=C/c2ccc(N(CCC#N)CCC#N)cc2)N=C1c1cc([N+](=O)[O-])ccc1Cl | – | > 100 | > 100 µM | > 100 µM | > 100 µM | > 100 µM | > 100 µM | – | > 100 µM | – | – | – | – | – | – | – | – | – | – | – |
| CC(C)(C)C(=O)OCOP(=O)(OCOC(=O)C(C)(C)C)C1CCCN(O)C1=O (centres undefined) | – | 62.7 | 1.12 µM | 1.58 µM | 8.81 µM | 28.7 µM | 42.6 µM | 8.05 µM | 6.41 µM | 0.434 µM | 3.55 µM | 2.01 | 0.308 | 0.324 µM | 0.508 µM | 0.551 µM | 0.493 | 0.537 µM | 0.306 µM | – |
| O=C1CCCC/C(=C/c2ccccc2)N1 | > 100 | > 100 | > 100 µM | – | > 100 µM | – | > 100 µM | > 100 µM | > 100 µM | – | – | – | – | – | – | – | – | – | – | – |
| O=C(CCCn1ccnc1[N+](=O)[O-])NCCn1cncc1[N+](=O)[O-] | > 100 | > 100 | > 100 µM | > 100 µM | > 100 µM | – | > 100 µM | > 100 µM | > 100 µM | – | > 100 µM | – | – | – | – | – | – | – | – | – |
| O=c1nc2occc2cn1C1CC(O)C(CO)O1 (centres undefined) | > 100 | > 100 | > 100 µM | > 100 µM | > 100 µM | > 100 µM | > 100 µM | > 100 µM | > 100 µM | – | – | – | – | – | – | – | – | – | – | – |
| COC(=O)C(C(=O)C(=O)Nc1cccc(OC)c1)c1cnc2ccccc2n1 (centres undefined) | > 100 | > 100 | > 100 µM | > 100 µM | > 100 µM | > 100 µM | > 100 µM | > 100 µM | > 100 µM | – | – | – | – | – | – | – | – | – | – | – |
| COC(=O)C1=C(C)N(NC(=O)c2ccccc2)C(C)(O)C12CCOC2=O (centres undefined) | > 100 | > 100 | > 100 µM | – | > 100 µM | > 100 µM | > 100 µM | > 100 µM | > 100 µM | – | – | – | – | – | – | – | – | – | – | – |
| CC(O)C(N=Cc1ccccc1[O-])C(=O)[O-].CC(O)C(N=Cc1ccccc1[O-])C(=O)[O-].[Co+2] (centres undefined) | – | > 100 | > 100 µM | – | > 100 µM | > 100 µM | > 100 µM | > 100 µM | > 100 µM | – | – | > 100 | 94.4 | – | 70.9 µM | > 100 µM | 78.2 | > 100 µM | 76.5 µM | – |
| CC1=Nc2ccccc2C1C(Cc1ccccc1N)c1c(C)[nH]c2ccccc12 (centres undefined) | 30.6 | 31.6 | 52.4 µM | 27.8 µM | 53.3 µM | 41.6 µM | 34.7 µM | 30.8 µM | 31.8 µM | – | – | – | – | – | – | – | – | – | – | – |
| CC1OC(n2cc(F)c(=O)[nH]c2=O)C=CC1O (centres undefined) | > 100 | > 100 | > 100 µM | > 100 µM | > 100 µM | > 100 µM | > 71.6 µM | > 100 µM | > 100 µM | – | – | – | – | – | – | – | – | – | – | – |
| O=C1OC(c2ccccc2)=N/C1=C/C=C/c1ccco1 | – | > 100 | – | > 100 µM | > 100 µM | > 100 µM | > 100 µM | > 100 µM | > 100 µM | – | – | – | – | – | – | – | – | – | – | – |
| OCCN1CN(CCO)CN(c2nc(N3CN(CCO)CN(CCO)C3)nc(N3CN(CCO)CN(CCO)C3)n2)C1 | – | – | 0.63 ng/mL | 1.74 ng/mL | 4.64 ng/mL | 63 ng/mL | 1.04 ng/mL | 18.3 ng/mL | 4.4 ng/mL | 0.867 ng/mL | 3.98 ng/mL | – | – | 0.891 ng/mL | 1.39 ng/mL | 1.08 ng/mL | – | 2.05 ng/mL | 1.5 ng/mL | – |
| O=C(O/N=C1/CCCC/C1=C\c1ccccc1)c1ccccc1 | > 100 | > 100 | > 100 µM | 0.34 µM | > 100 µM | > 100 µM | > 100 µM | > 100 µM | > 100 µM | – | – | – | – | – | – | – | – | – | – | – |
| Ic1ccc(Nc2nc3nonc3nc2Nc2ccc(I)cc2)cc1 | > 100 | > 100 | 0.574 µM | 0.352 µM | 0.741 µM | > 100 µM | > 100 µM | > 100 µM | – | 0.313 µM | > 100 µM | 0.387 | 0.107 | 0.137 µM | 0.23 µM | 0.324 µM | 0.296 | 0.321 µM | – | 0.135 |
| COc1ccc(OC)c(NC(=O)C(=O)NNC(=O)c2sc(NNC(C)=O)nc2C)c1 | > 100 | > 100 | > 100 µM | > 100 µM | > 100 µM | > 100 µM | 46.6 µM | > 100 µM | > 100 µM | – | – | – | – | – | – | – | – | – | – | – |
| O=Cc1cc2c(cc1-c1c(C=O)ccc3c1OCO3)OCO2 | > 10 | – | > 10 µM | > 10 µM | > 10 µM | > 10 µM | > 10 µM | > 10 µM | – | – | > 10 µM | – | – | – | – | – | – | – | – | – |
| Cc1ccc(SC(C)/C=C/NNC2=NC(c3ccccc3)C(c3ccccc3)=NN2)cc1 (centres undefined) | > 100 | 89.1 | > 100 µM | 31.4 µM | > 100 µM | – | > 100 µM | > 100 µM | 57.5 µM | – | – | – | – | – | – | – | – | – | – | – |
| C[C@H]1c2cccc(O)c2C(O)=C2C(=O)[C@]3(O)C(O)=C(C(N)=O)C(=O)[C@@H](N(C)C)[C@@H]3[C@@H](O)[C@@H]21 | 10.5 | 95.4 | – | 4.12 µM | 14.3 µM | 14.5 µM | 14.6 µM | 47.2 µM | 15.1 µM | 6.18 µM | 85.3 µM | 5.22 | – | 1.9 µM | 3.38 µM | 3.02 µM | 3.02 | 4.83 µM | 3.15 µM | 2.89 |
